Assay results as given in article PMC10447463, “Data-mining unveils structure–property–activity correlation of viral infectivity enhancing self-assembling peptides” (Nature Communications, 2023).
Values joined by “and” are separate entries in the source; they are usually repeats but may differ in a detail not shown here. Equal values may be shown once. Read-outs that look alike come from different tables or passages of the source.

Key:
[1] = test system: HIV-1 infection of TZM-bl cells; experiment: HIV-1 infectivity enhancement assay, β-galactosidase luminescence; type: cell-based; details: for Rel-EFC: infection relative to EF-C (QCKIKQIINMWQ = 1); for Log10 Infection Rel EFC: log10 of infection relative to EF-C; for Log Infectivity: Log10 infection relative to EF-C, TZM-bl cells; for Log10 Infection Rel EF-C: HIV-1 infection of TZM-bl cells; for Abs. Inf.: absolute infection signal, HIV-1 on TZM-bl cells, β-galactosidase luminescence; for Rel-to EFC (Feb-2021): n-fold infectivity relative to EF-C
[2] = type: physicochemical; design: key to Fibril / Fibril Formation / TEM 2cat / Fibril: 1 = fibrils present; 0 non-fibrillar structures; details: for Fibril / Fibril Formation: 1 mg/mL, uranyl acetate stain, qualitative
[3] = β-sheet content by ATR-FT-IR; type: physicochemical; details: for b -sheet / %: Fig. S7 panel A, β-sheet content by ATR-FT-IR
Method in brief: (§1)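 Using ATR FT-IR (diamond, 2 cm^-1, 64 scans), lyophilized 1 mg/mL PNF samples gave β-sheet content by a published calculation. Fluorescamine signals of 3 kDa filtrates relative to unfiltered samples, normalised to DMSO as 1, yielded CR in percent.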

[4] = Zeta-potential measurement; type: physicochemical
Method in brief: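 Readout: zeta potential (mV) derived by Smoluchowski from measured electrophoretic mobility. Preformed aggregates (1 mg/mL peptide, PBS pH 7.4, RT for 1 d) were diluted into dilute KCl electrolyte (1 mM) shortly before analysis.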

[5] = Conversion rate (CR) assay with fluorescamine; type: physicochemical; design: key to CR: % = 100−100×filtrate/original fluorescence intensity; details: for CR / %: Fig. S7 panel B; for CR / % / CR: conversion rate
Method in brief: as §1

[6] = Turbidity, derived count rate of scattered light; type: physicochemical; details: for Count Rate: derived count rate of scattered light (turbidity); for Log10 Count Rate: turbidity, derived count rate of scattered light, data of Figure 2D
[7] = Fig. S7 panel A (plotted against β-sheet content), asymmetric std dev errors
[8] = Fig. S7 panel B (plotted against CR), rounded to two decimals, asymmetric std dev errors
[9] = Log10 of infection rate relative to EF-C, Figure 3A source data
[10] = infection rate relative to EF-C, log10, data of Figure 2D
[11] = infection rate relative to EF-C, log10, source data of Figure 2C
[12] = Log10 of infection relative to EF-C, all peptides of FigS16
[13] = log10 of HIV-1 infection of TZM-bl cells relative to EF-C (EF-C = 0)
[14] = TEM, 1 = fibrils present, 0 = non-fibrillar
[15] = TEM, 1 = fibrils present, 0 = non-fibrillar structures
[16] = category: fibrils present or non-fibrillar
[17] = zeta-potential of peptide, source data of Figure 2C
[18] = zeta-potential of the peptide assemblies, mean, Figure 3A source data

Substance: KIKIQINMWQ
- Rel-EFC ([1]; 1.3 µM peptide): 0,3
- Log10 Infection Rel EFC ([1]; 1.3 µM peptide): -0,53
- Log Infectivity [1, 7]: -0.5276
- Log Infectivity [1, 8]: -0.53
- Log10 Infection Rel EF-C [1, 9]: -0.53
- Log10 Infection Rel EF-C [1, 10]: -0.5276
- Log10 Infection Rel EF-C [1, 11]: -0.5276
- Log10 of Rel to EFC (Feb2021) [1, 12]: -0.53
- Abs. Inf. [1]: 6650
- Log10 Inf. rel. to EF-C [1, 13]: -0.5276
- TEM 2cat ([2]; Fig S10 panel D): 1
- Fibril ([2]; Fig S10 panel E): 1
- Fibril / Fibril Formation ([2]; TEM): 1
- Fibril [2, 14]: 1
- Fibril [2, 15]: 1
- TEM 2cat [2, 16]: 1
- b -sheet / % [3]: 42.41%
- Zeta-Pot. [4]: 14.87
- Zeta-Potential / mV [4, 17]: 15.7 mV
- Zeta-Potential / mV [4, 18]: 14.87 mV
- CR / % ([5]; fluorescamine assay): 94.3%
- CR ([5]; fluorescamine assay): 94.34
- Count Rate [6]: 2196
- Log10 Count Rate [6]: 3.342

Substance: QCKIKQIINMWQ [reference compound]
- Rel-EFC ([1]; 1.3 µM peptide): 1
- n-fold infectivity enhancement compared to virus-only infectivity ([1]; 1.3 µM peptide, listed as EF-C): 42 ± 7
- Log10 Infection Rel EFC ([1]; 1.3 µM peptide): 0
- Absolute Infectivity / RLU /s (Feb2021) ([1]; Feb2021, figures match the 1.3 µM column): 21312.22222 RLU /s
- n-fold to virus (Feb2021) ([1]; Feb2021, infectivity relative to virus only): 42.02
- Rel-to EFC (Feb-2021) ([1]; Feb2021): 1
- n-fold to virus (Feb2021) ([1]; Feb2021 run, infectivity n-fold relative to virus alone): 42.02
- Log10 of Rel to EFC (Feb2021) ([1]; Feb2021 run, log10 of infectivity relative to EF-C): 0
- Rel-to EFC (Feb-2021) ([1]; Feb2021 run): 1
- Rel-to EFC ([1]; Fig S8 panels B, D, infectivity enhancement relative to EF-C): 1
- n-fold to virus ([1]; Fig S8 panels B, D, infectivity n-fold relative to virus alone): 42.02
- Log Infectivity [1, 7]: 0
- Log Infectivity [1, 8]: 0
- Log10 Infection Rel EF-C [1, 9]: 0
- Log10 Infection Rel EF-C [1, 10]: 0
- Log10 Infection Rel EF-C [1, 11]: 0
- Log10 of Rel to EFC (Feb2021) [1, 12]: 0
- Abs. Inf. [1]: 21312.22222
- infectivity ([1]; infectivity class (low / medium / high) of the peptide in the sequence-pattern analysis, Fig. S22-A4, class limits not given): high
- Log10 Inf. rel. to EF-C [1, 13]: 0
- Log10 Inf. rel. to EF-C ([1]; log10 of HIV-1 infection of TZM-bl cells relative to EF-C, Fig S15 source data, asymmetric std dev errors): 0
- Abs Infection at 0.26µM ([1]; peptide 0.26 µM, mean of n = 3, Figure 7A): 39053.33333
- Abs Infection at 1.3 µM ([1]; peptide 1.3 µM, mean of n = 3, Figure 7A): 101036.6667
- Abs Infection at 6.5 µM ([1]; peptide 6.5 µM, mean of n = 3, Figure 7A): 141063.3333
- TEM 2cat ([2]; Fig S10 panel D): 1
- Fibril ([2]; Fig S10 panel E): 1
- TEM: 1= fibrils, 0= aggregates (micelle), 0.5 = aggregates and fibrils, -1 = nothing obersved, STD prep ([2]; STD prep): 0.5
- Fibril / Fibril Formation ([2]; TEM): 1
- Fibril [2, 14]: 1
- Fibril [2, 15]: 1
- TEM 2cat [2, 16]: 1
- FTIR ß-sheet content/ % [3]: 39.05%
- FTIR ß-sheet content/ % ([3]; ATR-FT-IR, listed as EF-C): 39% and 39.05%
- b -sheet / % [3]: 51.73%
- Zeta Pot. / mV [4]: 6.643 mV
- Zeta category ( +1 = if > 4 mV;-1 = if < -4 mV; 0 = -4mV to 4 mV) [4]: 1 (+1 = if > 4 mV)
- Zeta-Pot. [4]: 6.643
- Zeta category ( +1 = if > 4 mV;-1 = if < -4 mV; 0 = -4mV to 4 mV) ([4]; category from zeta potential): 1 (+1 = if > 4 mV)
- Zeta Pot. / mV ([4]; mean, Std Zeta in next column): 6.643 mV
- Zeta Pot. / mV ([4]; mean, Std in separate column): 6.643 mV
- Zeta-pot. / mV ([4]; zeta potential of peptide, Fig S15 source data): 6.643 mV
- Zeta-Potential / mV [4, 17]: 7.192 mV
- Zeta-Potential / mV [4, 18]: 6.64 mV
- Conversion Rate / % [5]: 76.98%
- CR / % ([5]; fluorescamine assay): 77%
- CR ([5]; fluorescamine assay): 76.98
- Conversion Rate / % ([5]; fluorescamine assay): 76.98%
- Count Rate [6]: 2602
- Log10 Count Rate [6]: 3.415

Substance: RLRLTLC
- Rel-EFC ([1]; 1.3 µM peptide): 0,05
- Log10 Infection Rel EFC ([1]; 1.3 µM peptide): -1,29
- Log Infectivity [1, 7]: -1.288
- Log Infectivity [1, 8]: -1.29
- Log10 Infection Rel EF-C [1, 9]: -1.29
- Log10 Infection Rel EF-C [1, 10]: -1.288
- Log10 Infection Rel EF-C [1, 11]: -1.288
- Abs. Inf. [1]: 1334
- Log10 Inf. rel. to EF-C [1, 13]: -1.288
- TEM 2cat ([2]; Fig S10 panel D): 1
- Fibril ([2]; Fig S10 panel E): 1
- TEM 2cat ([2]; FigS12 panel A, fibril category by TEM): 1
- Fibril ([2]; FigS12 panel B, TEM): 1
- Fibril / Fibril Formation ([2]; TEM): 1
- Fibril [2, 14]: 1
- Fibril [2, 15]: 1
- b -sheet / % [3]: 20.6858%
- Zeta-Pot. [4]: 19.67
- Zeta-Potential / mV [4, 17]: 20.73 mV
- Zeta-Potential / mV [4, 18]: 19.67 mV
- CR / % ([5]; fluorescamine assay): 87.4%
- CR ([5]; fluorescamine assay): 87.44
- Count Rate [6]: 125.6
- Log10 Count Rate [6]: 2.0991
